Values of other authors, collected in patent US8632826B2, “Cosmetic wrinkle treatment method based on a zanthoxylum bungeanum extract” (Indena S.p.A., priority 2009, dated 2014).

Test system: thrombosis

## COc1ccc2c(c[n+](C)c3c4cc5c(cc4ccc23)OCO5)c1OC [chelcrythrine]
  activity in the prevention of thrombosis: active in the prevention of thrombosis
